Assay results taken from ChEMBL document CHEMBL6177971, “Iterative Optimization Yields Stapled Peptides with Superior Pharmacokinetics and Potency for Renal Fibrosis Treatment” (J Med Chem, 2025).
Activity calls are given as the source filed them. The calls are words filed in the database; no cut-off is given here. *1 amine or outer side, *2 acyl side, *3 side chain or, on linkers, in order; H or OH if unused. Where a SMILES comes first, the peptide text is derived from it. [ ]: non-standard residue; d: D form. X1 = CCCCC[C@](C)(N[*:1])C(=O)[*:2]; S5 = C=CCCC[C@](C)(N)C(=O)O

Legend:
Mus musculus [1] = experiment: Anti-fibrotic activity in C57BL/6J mouse model of unilateral ureteral obstruction assessed as decrease in renal inflammation at 20 mg/kg, ip administered every day for 7 days by H and E staining based analysis; assay type: functional, organism-based; conditions: time 7.0 day
Mus musculus [2] = experiment: Anti-fibrotic activity in C57BL/6J mouse model of unilateral ureteral obstruction assessed as decrease in renal fibrosis at 20 mg/kg, ip administered every day for 7 days by H and E staining based analysis; assay type: functional, organism-based; conditions: time 7.0 day
HK-2 [3] = experiment: Inhibition of TGF-beta1-induced EMT in human HK-2 cells assessed as decrease in alpha-SMA level at 10 uM incubated for 24 hrs by Western blot analysis; assay type: functional, cell-based
Mus musculus [4] = experiment: Anti-fibrotic activity in male C57BL/6J mouse model of unilateral ureteral obstruction assessed as decrease in fibronectin level administered intraperitoneally every day for 7 days by Western blot analysis; assay type: functional, organism-based; conditions: route ip, time 7.0 day
[5] = Retention time of compound; assay type: physicochemical
Mus musculus [6] = experiment: Anti-fibrotic activity in male C57BL/6J mouse model of unilateral ureteral obstruction assessed as increase in E-cadherin level administered intraperitoneally every day for 7 days by Western blot analysis; assay type: functional, organism-based; conditions: route ip, time 7.0 day
Mus musculus [7] = experiment: Anti-fibrotic activity in male C57BL/6J mouse model of unilateral ureteral obstruction assessed as decrease in alpha-SMA level administered intraperitoneally every day for 7 days by Western blot analysis; assay type: functional, organism-based; conditions: route ip, time 7.0 day
[8] = Toxicity in male C57BL/6J mouse model of unilateral ureteral obstruction assessed as change in animal body weight administered intraperitoneally every day for 7 days; conditions: in vivo, ip, 168 h, time 7 day
[9] = Toxicity in male C57BL/6J mouse model of unilateral ureteral obstruction assessed as change in animal appearance administered intraperitoneally every day for 7 days; conditions: in vivo, ip, 168 h, time 7 day
Mus musculus [10] = experiment: Anti-fibrotic activity in male C57BL/6J mouse model of unilateral ureteral obstruction assessed as decrease in vimentin level administered intraperitoneally every day for 7 days by Western blot analysis; assay type: functional, organism-based; conditions: route ip, time 7.0 day
[11] = Toxicity in male C57BL/6J mouse model of unilateral ureteral obstruction assessed as change in animal behaviour administered intraperitoneally every day for 7 days; conditions: in vivo, ip, 168 h, time 7 day
HK-2 [12] = experiment: Inhibition of TGF-beta1-induced EMT in human HK-2 cells assessed as decrease in collagen I level at 10 uM incubated for 24 hrs by Western blot analysis; assay type: functional, cell-based
HK-2 [13] = experiment: Inhibition of TGF-beta1-induced EMT in human HK-2 cells assessed as decrease in fibronectin level at 10 uM incubated for 24 hrs by Western blot analysis; assay type: functional, cell-based
[14] = Half life in C57BL/6J mouse at 2.5 mg/kg, iv measured for 3 to 60 mins by HPLC/MS analysis; assay type: ADME, organism-based; conditions: in vivo, time 3-60 min
[15] = Half life of compound; assay type: physicochemical

Row | SMILES | Activity (Mus musculus [1]) | Activity (Mus musculus [2]) | inhibition (HK-2 [3]) | Activity (Mus musculus [4]) | Retention_time [5] [min] | Activity (Mus musculus [6]) | Activity (Mus musculus [7]) | Activity [8] | Activity [9] | Activity (Mus musculus [10]) | Activity [11] | inhibition (HK-2 [12]) | inhibition (HK-2 [13]) | half-life [14] [min] | half-life [15] [min]
1 | C[C@H](CS)C(=O)N1CCC[C@H]1C(=O)O | Active | Active |  |  |  |  |  |  |  |  |  |  |  |  | 
2 | CCCCC[C@](C)(NC(=O)[C@H](Cc1c[nH]cn1)NC(=O)[C@@H](N)CC(=O)O)C(=O)N[C@@H](CC(N)=O)C(=O)N1CCC[C@H]1C(=O)N[C@@H](CCC(N)=O)C(=O)N[C@H](C(=O)N[C@@H](CCCNC(=N)N)C(N)=O)[C@@H](C)CC (H-DH[X1]NPQIR-NH2) |  |  | Active | Active | 10.009 | Active | Active | Non-toxic | Non-toxic | Active | Non-toxic | Active | Active |  | 
3 | C=CCCC[C@](C)(NC(=O)[C@H](Cc1c[nH]cn1)NC(=O)[C@@H](N)CC(=O)O)C(=O)N[C@@H](CC(N)=O)C(=O)N1CCC[C@H]1C(=O)N[C@@H](CCC(N)=O)C(=O)N[C@H](C(=O)N[C@@H](CCCNC(=N)N)C(N)=O)[C@@H](C)CC (H-DH[S5]NPQIR-NH2) |  |  | Active | Active | 9.036 | Active | Active | Non-toxic | Non-toxic | Active | Non-toxic | Active | Active | 11.4 | 98.4
